pKi: −log10 of the molar value.

One data set deals with mice. As to the kind of experiment: Antagonizing cannabinoid (HU-210)-induced hypomotility. It counts as in vivo, mouse. Particulars: HU-210 30 μg/kg ip; rimonabant 10 mg/kg ip; BNS-002 10, 20 and 50 mg/kg. How it is done: Locomotor activity. Locomotor activity was quantified by the number of disruptions of infrared XYZ beam arrays with a beam spacing of 0.25 cm in the Promethion High-Definition Behavioral Phenotyping System (Sable Instruments, Inc., Las Vegas, NV, USA).
Antagonizing cannabinoid-induced hypomotility. The ability of the different compounds to inhibit the hypomotility induced by HU210 (cannabinoid agonist) was evaluated. […] A half an hour thereafter, mice received a single dose of HU210 (30 ug/kg, IP) and their locomotor activity was evaluated as described above.

In data set [1] the test system is mice with diet-induced obesity (DIO). As to the kind of experiment: Multi-parameter metabolic assessment (indirect calorimetry) in DIO mice. It counts as in vivo, mouse. Particulars: DIO mice, 10 mg/kg/d ip. How it is done:
Multi-parameter metabolic assessment. Metabolic profile of the mice was assessed by using the Promethion High-Definition Behavioral Phenotyping System (Sable Instruments, Inc., Las Vegas, NV, USA). Data acquisition and instrument control were performed using MetaScreen software version 2.2.18.0, and the obtained raw data were processed using ExpeData version 1.8.4 using an analysis script detailing all aspects of data transformation. Mice with free access to food and water were subjected to a standard 12 h light/12 h dark cycle, which consisted of a 48 h acclimation period followed by 24 h of sampling. Respiratory gases were measured by using the GA-3 gas analyzer (Sable Systems, Inc., Las Vegas, NV, USA) using a pull-mode, negative-pressure system. Air flow was measured and controlled by FR-8 (Sable Systems, Inc., Las Vegas, NV, USA), with a set flow rate of 2000 mL/min. Water vapor was continuously measured and its dilution effect on O2 and CO2 was mathematically compensated. Effective mass was calculated by [body mass]^0.75. Fat oxidation (FO) and carbohydrate oxidation (CHO) were calculated as FO=1.69×VO2−1.69×VCO2 and CHO=4.57×VCO2−3.23×VO2 and expressed as g/d/kg^eff.Mass.

Data set [2] can be described thus: Tissue levels of antagonists (brain penetrance). The class given is in vivo, mouse. Particulars: mice, 3 and 10 mg/kg ip, 1 hour. How it is done: Tissue levels of antagonists. […] Blood was collected, and the mice were perfused with phosphate buffered saline for 1 min to remove drug from the intravascular space before removing the brain and liver. Drug levels in tissue homogenates and plasma were determined by using LC-MS/MS.

In data set [3] the test system is mice with diet-induced obesity (DIO). The experiment in a line: HFD-induced kidney hyperfiltration. The class given is in vivo, mouse. Particulars: BNS-002. How it is done: (§1) Blood and urine biochemistry. Serum and urine levels of creatinine as well as serum levels of ALT, AST, ALP, HDL, LDL, TG and cholesterol were determined by using the Cobas C-111 chemistry analyzer (Roche, Switzerland). Creatinine clearance was calculated using urine and serum creatinine levels (CCr mL/h=Urine creatinine mg/dL×Urine volume/Serum creatinine mg/dL×24 hrs). Serum insulin levels were measured by an ELISA kit (Crystal Chem, Inc., Downers Grove, IL, USA). Fasting blood glucose was measured using the Elite glucometer (Bayer, Pittsburgh, PA).

Data set [4] has the same test system. The experiment in a line: HFD-induced hepatic steatosis and liver injury. The class given is in vivo, mouse. Particulars: DIO mice, 10 mg/kg/d ip. How it is done:
as §1
Histopathological Analyses. 5 μm paraffin-embedded liver sections from 5 animals per group were stained with hematoxylin-eosin staining. Liver images were captured with a Zeiss AxioCam ICc5 color camera mounted on a Zeiss Axio Scope.A1 light microscope and taken from 10 random 40× fields of each animal.

Data set [5] shares this test system. As to the kind of experiment: Body weight, adiposity and food intake in diet-induced obese mice. It counts as in vivo, mouse. The source says: Mice. The experimental protocol used was approved by the Institutional Animal Care and Use Committee of the Hebrew University, which is an AAALAC International accredited institute. Male 6 week old C57Bl/6J mice were obtained from Harlan Laboratories. Mice were maintained under a 12-h light/dark cycle and fed ad libitum. To generate diet-induced obesity, C57Bl6/J mice were fed either a high-fat diet (HFD) (60% of calories from fat, 20% from protein, and 20% from carbohydrates; Research Diet, D12492) or a standard laboratory diet (STD, 14% fat, 24% protein, 62% carbohydrates; NIH-31 rodent diet) for 14 weeks.
Age-matched control mice on STD received vehicle daily. Body weight and food intake were monitored daily. Total body fat and lean masses were determined by EchoMRI-100H™ (Echo Medical Systems LLC, Houston, TX, USA). 24 h urine was collected one week before euthanasia using mouse metabolic cages (CCS2000 Chiller System, Hatteras Instruments, NC, USA). At weeks 20 mice were euthanized by a cervical dislocation under anesthesia, the kidneys, brain, liver, fat pads, and muscles were removed and weighed, and samples were either snap-frozen or fixed in buffered 4% formalin Trunk blood was collected for determining the biochemical parameters.

The target in data set [6] is T1, CB1 receptor (Mus musculus, UniProt P47746).
T1 construct: crude membranes from mouse brain for CB1 receptor; from tissue; host or cells: mouse brain membranes (crude / P2)
As to the kind of experiment: [35S]GTPγS binding in mouse brain membranes. The class given is biochemical. How it is done:
[^35S]GTPγS binding. Mouse brains were dissected and P2 membranes prepared and resuspended at ˜6 μg protein/μL in 1 ml assay buffer (50 mM Tris HCl, 9 mM MgCl2, 0.2 mM EGTA, 150 mM NaCl; pH 7.4). […] Briefly, membranes (10 μg protein) were incubated in assay buffer containing 100 μM GDP, 0.05 nM [^35S]GTPγS, test compounds at 1 nM-1 μM, and 1.4 mg/mL fatty acid-free BSA in siliconized glass tubes. Bound ligand was separated from free by vacuum filtration. Non-specific binding was determined using 10 μM GTPS. Basal binding was assayed in the absence of the ligand and in the presence of GDP.
In general terms: Binding of GTPγS marks nucleotide exchange on a G protein.

Data set [7] relates to mice with diet-induced obesity (DIO). The experiment in a line: Glycemic control (ipGTT, ipIST, glucose, insulin) in DIO mice. The class given is in vivo, mouse. Particulars: DIO mice, 10 mg/kg/d ip. How it is done: Glucose tolerance (ipGTT) test and insulin sensitivity tests (ipIST). Mice that fasted overnight were injected with glucose (1.5 g/kg, ip), followed by a tail blood collection at 0, 15, 30, 45, 60, 90, and 120 minutes. Blood glucose levels were determined using the Elite glucometer (Bayer, Pittsburgh, PA). On the following day, mice were fasted for 6 h before receiving insulin (0.75 U/kg, i.p.; Eli Lilly, […], USA or Actrapid® vial, novo nordisk A/S, Denmark), and blood glucose levels were determined at the same intervals as above.
as §1

The target in data set [8] is T1, CB1 receptor. As to the kind of experiment: [3H]CP-55,940 radioligand displacement assay. It counts as binding. How it is done:
Radioligand binding assays. BNS-002 binding to CB1 receptor was assessed in competition displacement assays using [^3H]CP-55,940 as the radioligand and crude membranes from mouse brain for CB1 receptor. All data were in triplicates with Ki values determined from three independent experiments.
Radioligand binding assay. Binding of the tested compounds to CB1 receptor was assessed in competition displacement assays using [3H]CP-55,940 as the radioligand and crude membranes from mouse brain for CB1 receptor. Membranes were extracted according to an established protocol previously described by Catani V. M. and Gasperi V.. Compounds were tested at different concentrations (10-5M-10-11M) and their ability to displace [3H]CP-55,940 was evaluated. Membranes with bound [3H]CP-55,940 were separated and washed from free ligand by vacuum filtration and bound [3H]CP-55,940 radioactivity was measured using a […]. All data were in triplicates with Ki values extracted by nonlinear regression analysis using GraphPad Prism software.
On the technique in general: Loss of bound radioactivity is the signal in a displacement assay; it reports binding, not function.

T1 sequence (P47746 whole entry): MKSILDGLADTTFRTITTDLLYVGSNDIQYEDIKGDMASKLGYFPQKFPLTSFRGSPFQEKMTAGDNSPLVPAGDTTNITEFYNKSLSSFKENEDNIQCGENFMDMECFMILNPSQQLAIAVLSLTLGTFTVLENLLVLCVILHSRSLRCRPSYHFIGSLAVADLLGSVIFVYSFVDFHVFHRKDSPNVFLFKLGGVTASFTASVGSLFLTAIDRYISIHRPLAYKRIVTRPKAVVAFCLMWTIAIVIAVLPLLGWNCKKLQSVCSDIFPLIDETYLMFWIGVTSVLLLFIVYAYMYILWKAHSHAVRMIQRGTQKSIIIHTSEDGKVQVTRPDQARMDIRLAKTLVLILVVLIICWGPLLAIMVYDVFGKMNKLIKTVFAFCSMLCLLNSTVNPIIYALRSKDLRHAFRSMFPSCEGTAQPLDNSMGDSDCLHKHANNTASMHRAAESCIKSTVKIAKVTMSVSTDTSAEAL

The term pKi denotes the negative decadic logarithm of the Ki, by convention in mol/L. For `CCCCCCCCCCCCCCCCCCNC(=O)c1nn(-c2ccc(Cl)cc2Cl)c(-c2ccc(Cl)cc2)c1C` [BNS-002, 5-(4-chlorophenyl)-1-(2,4-dichlorophenyl)-4-methyl-N-octadecyl-1H-pyrazole-3-carboxamide], in the data set with mice, the “increase in immobility induced by HU-210” value is “unaffected”. Also, in [1], the “HFD-induced reduction in VO2” value is given as “upregulate”, the “HFD-induced reduction in fat oxidation” value is reported as “upregulate” and the “HFD-induced reduction in total energy expenditure” value is on record as “upregulate”. In data set [2], the brain levels result is reported as “reduced”, the brain penetrance entry was “markedly reduced” and the serum levels entry is recorded as “increased”. Moreover, in [3], the HFD-induced kidney hyperfiltration result was “completely normalized”. For the same molecule, the “HFD-induced hepatic steatosis (fat vacuoles in the liver)” value in [4] is listed as “partially”. Further, in data set [5] (10 mg/kg/d ip, 28 days), the “increased adiposity of mice on HFD” value is “significantly reduced by rimonabant only” and the “overweight of mice on HFD” value is “significantly reduced by rimonabant only”. For the same molecule, in data set [5] (7 days, BNS-002 15 mg/kg ip), the body weight reduction entry was “no effect”. Further, in [5] (7 days, rimonabant 10 mg/kg/d, BNS-002 30 mg/kg ip), the “overweight of mice on HFD” value is recorded as “significantly reduced”. Further, the “functional profile by GTPγS binding (inverse agonism)” value at CB1 receptor [6] is listed as “inverse agonist”. Besides, the “GTPγS binding in mouse brain membranes” value on CB1 receptor [6] (compound alone) was “reduces GTPγS binding”. For the same molecule, the “action of the potent CB1 receptor agonist HU-210 on GTPγS binding” value at CB1 receptor [6] (with HU-210) is given as “able to ameliorate”. For the same molecule, in data set [7], the HFD-induced glucose intolerance entry is “completely reversed” and the HFD-induced hyperglycemia result is “completely reversed”. For the same molecule, the pKi at CB1 receptor [8] ([3H]CP-55,940, crude membranes from mouse brain, read-out: Ki for CB1 receptor) was 8.30. Also, the “affinity for CB1 receptor (in words)” value at CB1 receptor [8] (radioligand displacement) is “retains high affinity and selectivity”.

The record behind these values is patent US12473270B2, “CB1R receptor blockers with acyclic backbones” (YISSUM RESEARCH DEVELOPMENT COMPANY OF THE HEBREW …, priority 2019, dated 2025).
